A short description of one series: Solubility determination. As to conditions: for Sol6: pH 6; for Sol7: pH 7. The gist of the method: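 Shake-flask style: 10 mg/ml peptide (TFA salt), 0.1 M sodium diphosphate pH 6.4/7.0, 600 rpm, 2 h, RT; filter; dilute 1 mg/ml in 50% MeCN; RP-UPLC, 0–100% B over 2 min, 50 °C. Solubility = sample/control area ratio. Final pH recorded.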
Series [1] addresses T1, Human Neuropeptide Y2 Receptor (Homo sapiens, UniProt P49146).
T1 construct: purchased CHEMICON HTS066M
T1 sequence (P49146 1-381): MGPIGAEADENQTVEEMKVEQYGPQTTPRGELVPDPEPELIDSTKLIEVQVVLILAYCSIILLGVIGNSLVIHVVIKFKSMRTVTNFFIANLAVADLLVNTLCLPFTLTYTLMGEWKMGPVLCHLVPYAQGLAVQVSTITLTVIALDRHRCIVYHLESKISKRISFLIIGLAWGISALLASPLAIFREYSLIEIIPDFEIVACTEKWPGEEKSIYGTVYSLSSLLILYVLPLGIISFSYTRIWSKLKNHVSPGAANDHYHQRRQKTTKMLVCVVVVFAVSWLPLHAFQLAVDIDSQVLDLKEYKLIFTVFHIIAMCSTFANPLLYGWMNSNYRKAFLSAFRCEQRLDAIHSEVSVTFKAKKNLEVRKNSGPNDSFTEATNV
Put plainly: Radioligand binding competition assay (RLB). The settings on record: Table 3, 125I-PYY(1-36) competition; read-out: Ki. The gist of the method:
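Displacement of radioligand is measured after 2 h at room temperature with receptor membranes in Mg2+/Ca2+ HEPES buffer, pH 7.4. Filter-bound radioactivity is counted and IC50 obtained from curve fitting.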

*1 amine or outer side, *2 acyl side, *3 side chain or, on linkers, in order; H or OH if unused. Where a SMILES comes first, the peptide text is derived from it. Side-chain parts run from the residue outwards. The star is where a group is joined. C18 diacid = O=C(O)CCCCCCCCCCCCCCCCC(=O)*; γGlu = O=C(O)[C@H](CCC(=O)[*:2])N[*:1]; Isovaleryl = CC(C)CC(=O)*; Ahx = NCCCCCC(=O)O A value given as a limit tells only on which side of the number the result lay.

The term Ki denotes a dissociation constant, usually derived from enzyme kinetics or from competition with a known ligand. For `CC(C)CC(=O)N[C@@H](C)C(=O)N1CCC[C@H]1C(=O)N[C@@H](CCC(=O)O)C(=O)N[C@@H](CCCCNC(=O)CCCCCNC(=O)CC[C@H](NC(=O)CCCCCCCCCCCCCCCCC(=O)O)C(=O)O)C(=O)N1CCC[C@H]1C(=O)N[C@@H](CCC(=O)O)C(=O)N[C@@H](CCC(=O)O)C(=O)N[C@@H](CC(=O)O)C(=O)N[C@@H](C)C(=O)N[C@H](C(=O)N[C@@H](CO)C(=O)N[C@@H](CCC(=O)O)C(=O)N[C@@H](CCC(=O)O)C(=O)N[C@@H](CC(C)C)C(=O)N[C@@H](CCC(N)=O)C(=O)N[C@@H](CCCNC(=N)N)C(=O)N[C@@H](Cc1ccc(O)cc1)C(=O)N[C@@H](Cc1ccc(O)cc1)C(=O)N[C@H](C(=O)N[C@@H](CO)C(=O)N[C@@H](CC(C)C)C(=O)N[C@@H](CCCNC(=N)N)C(=O)N[C@@H](Cc1c[nH]cn1)C(=O)N[C@@H](Cc1ccc(O)cc1)C(=O)N[C@@H](Cc1ccc(O)cc1)C(=O)N[C@@H](CC(N)=O)C(=O)N[C@@H](Cc1c[nH]c2ccccc12)C(=O)N[C@@H](CC(C)C)C(=O)N[C@H](C(=O)N[C@@H](CCCNC(=N)N)C(=O)N[C@@H](CCC(N)=O)C(=O)N[C@@H](CCCNC(=N)N)C(=O)N[C@@H](Cc1ccc(O)cc1)C(N)=O)[C@@H](C)O)C(C)C)[C@@H](C)O` [Compound 83, N{alpha-4}-(3-methylbutanoyl)-N{epsilon-7}-(6-[(4S)-4-carboxy-4-(17-carboxyheptadecanamido)butanamido]hexanoyl)-[4A,7K,9E,13T,14S,18Q,22V,28Y,30W,31L]-hPYY(4-36)], in “Solubility determination”, the “Sol6” value was 10.0 mg/mL and the “Sol7” value is 10.0 mg/mL. The inhibition constant Ki in series [1] was 6.91 nM.

`CC[C@H](C)[C@H](NC(=O)[C@H](CCC(=O)O)NC(=O)[C@H](CCC(=O)O)NC(=O)[C@@H]1CCCN1C(=O)[C@H](CO)NC(=O)[C@H](C)NC(=O)[C@H](CC(=O)O)NC(=O)[C@H](C)NC(=O)[C@@H]1CCCN1C(=O)[C@@H]1CCCN1C(=O)[C@H](CCCCNC(=O)CCCCCNC(=O)CC[C@H](NC(=O)CCCCCCCCCCCCCCCCC(=O)O)C(=O)O)NC(=O)[C@H](CCC(=O)O)NC(=O)[C@@H]1CCCN1C(=O)[C@H](C)NC(=O)CC(C)C)C(=O)N[C@@H](CCC(N)=O)C(=O)N[C@@H](CCCNC(=N)N)C(=O)N[C@@H](Cc1ccc(O)cc1)C(=O)N[C@@H](Cc1ccc(O)cc1)C(=O)N[C@H](C(=O)N[C@@H](CO)C(=O)N[C@@H](CC(C)C)C(=O)N[C@@H](CCCNC(=N)N)C(=O)N[C@@H](Cc1c[nH]cn1)C(=O)N[C@@H](Cc1ccc(O)cc1)C(=O)N[C@@H](Cc1ccc(O)cc1)C(=O)N[C@@H](CC(N)=O)C(=O)N[C@@H](Cc1c[nH]c2ccccc12)C(=O)N[C@@H](CC(C)C)C(=O)N[C@H](C(=O)N[C@@H](CCCNC(=N)N)C(=O)N[C@@H](CCC(N)=O)C(=O)N[C@@H](CCCNC(=N)N)C(=O)N[C@@H](Cc1ccc(O)cc1)C(N)=O)[C@@H](C)O)C(C)C` [Compound 61, N{alpha-4}-(3-methylbutanoyl)-N{epsilon-7}-(6-[(4S)-4-carboxy-4-(17-carboxyheptadecanamido)butanamido]hexanoyl)-[4A,7K,9P,10A,17I,18Q,22V,28Y,30W,31L]-hPYY(4-36)]: in “Solubility determination”, the “Sol6” value came out at 0.1 mg/mL and the “Sol7” value turned out to be 8.9 mg/mL. Further, the Ki in series [1] was determined as 0.41 nM.

Turning to `CC(C)CC(=O)N[C@@H](C)C(=O)N1CCC[C@H]1C(=O)N[C@@H](C)C(=O)N[C@@H](CCCCNC(=O)CCCCCNC(=O)CC[C@H](NC(=O)CCCCCCCCCCCCCCCCC(=O)O)C(=O)O)C(=O)N1CCC[C@H]1C(=O)N[C@@H](CCC(=O)O)C(=O)N[C@@H](C)C(=O)N[C@@H](C)C(=O)N[C@@H](C)C(=O)N[C@@H](CCC(=O)O)C(=O)N1CCC[C@H]1C(=O)N[C@@H](CCC(=O)O)C(=O)N[C@@H](CCC(=O)O)C(=O)N[C@@H](CC(C)C)C(=O)N[C@@H](CCC(N)=O)C(=O)N[C@@H](CCCNC(=N)N)C(=O)N[C@@H](Cc1ccc(O)cc1)C(=O)N[C@@H](Cc1ccc(O)cc1)C(=O)N[C@H](C(=O)N[C@@H](CO)C(=O)N[C@@H](CC(C)C)C(=O)N[C@@H](CCCNC(=N)N)C(=O)N[C@@H](Cc1c[nH]cn1)C(=O)N[C@@H](Cc1ccc(O)cc1)C(=O)N[C@@H](Cc1ccc(O)cc1)C(=O)N[C@@H](CC(N)=O)C(=O)N[C@@H](Cc1c[nH]c2ccccc12)C(=O)N[C@@H](CC(C)C)C(=O)N[C@H](C(=O)N[C@@H](CCCNC(=N)N)C(=O)N[C@@H](CCC(N)=O)C(=O)N[C@@H](CCCNC(=N)N)C(=O)N[C@@H](Cc1ccc(O)cc1)C(N)=O)[C@@H](C)O)C(C)C` [Compound 43, N{alpha-4}-(3-methylbutanoyl)-N{epsilon-7}-(6-[(4S)-4-carboxy-4-(17-carboxyheptadecanamido)butanamido]hexanoyl)[4A,6A,7K,9E,10A,11A,13E,18Q,22V,28Y,30W,31L]-hPYY(4-36)] (Isovaleryl-APAK([Ahx-γGlu-C18 diacid])PEAAAEPEELQRYYVSLRHYYNWLTRQRY-NH2), in “Solubility determination”, the “Sol6” value amounted to 0.0 mg/mL and the “Sol7” value was determined as 0.0 mg/mL. In series [1], the inhibitory constant (Ki) came to 2.49 nM.

With `CC[C@H](C)[C@H](NC(=O)[C@H](CCC(=O)O)NC(=O)[C@H](CCC(=O)O)NC(=O)[C@@H]1CCCN1C(=O)[C@H](CC(C)C)NC(=O)[C@H](C)NC(=O)[C@H](CC(=O)O)NC(=O)[C@H](CCC(=O)O)NC(=O)[C@H](CCC(=O)O)NC(=O)[C@@H]1CCCN1C(=O)[C@H](CCCCNC(=O)CCCCCNC(=O)CC[C@H](NC(=O)CCCCCCCCCCCCCCCCC(=O)O)C(=O)O)NC(=O)[C@H](CCC(=O)O)NC(=O)[C@@H]1CCCN1C(=O)[C@H](C)NC(=O)CC(C)C)C(=O)N[C@@H](CCC(N)=O)C(=O)N[C@@H](CCCNC(=N)N)C(=O)N[C@@H](Cc1ccc(O)cc1)C(=O)N[C@@H](Cc1ccc(O)cc1)C(=O)N[C@H](C(=O)N[C@@H](CO)C(=O)N[C@@H](CC(C)C)C(=O)N[C@@H](CCCNC(=N)N)C(=O)N[C@@H](Cc1c[nH]cn1)C(=O)N[C@@H](Cc1ccc(O)cc1)C(=O)N[C@@H](Cc1ccc(O)cc1)C(=O)N[C@@H](CC(N)=O)C(=O)N[C@@H](Cc1c[nH]c2ccccc12)C(=O)N[C@@H](CC(C)C)C(=O)N[C@H](C(=O)N[C@@H](CCCNC(=N)N)C(=O)N[C@@H](CCC(N)=O)C(=O)N[C@@H](CCCNC(=N)N)C(=O)N[C@@H](Cc1ccc(O)cc1)C(N)=O)[C@@H](C)O)C(C)C` [Compound 142, N{alpha-4}-(3-methylbutanoyl)-N{epsilon-7}-(6-[(4S)-4-carboxy-4-(17-carboxyheptadecanamido)butanamido]hexanoyl)-[4A,7K,9E,13L,17I,18Q,22V,28Y,30W,31L]-hPYY(4-36)], in the series “Solubility determination”, the “Sol6” value was more than 10.0 mg/mL and the “Sol7” value was more than 10.0 mg/mL. For the same compound, the Ki in series [1] stood at 3.97 nM.

Turning to `CC[C@H](C)[C@H](NC(=O)[C@H](Cc1ccc(O)cc1)NC(=O)[C@H](Cc1ccc(O)cc1)NC(=O)[C@H](CCCNC(=N)N)NC(=O)[C@H](CCC(N)=O)NC(=O)[C@H](CC(C)C)NC(=O)[C@H](CCC(=O)O)NC(=O)[C@H](CCC(=O)O)NC(=O)[C@@H]1CCCN1C(=O)[C@H](CCC(=O)O)NC(=O)[C@H](C)NC(=O)[C@H](CC(=O)O)NC(=O)[C@H](C)NC(=O)[C@H](CCC(=O)O)NC(=O)[C@@H]1CCCN1C(=O)[C@H](CCCCNC(=O)CCCCCNC(=O)CC[C@H](NC(=O)CCCCCCCCCCCCCCCCC(=O)O)C(=O)O)NC(=O)[C@H](CCC(=O)O)NC(=O)[C@@H]1CCCN1C(=O)[C@H](C)NC(=O)CC(C)C)C(=O)N[C@@H](C)C(=O)N[C@@H](CC(C)C)C(=O)N[C@@H](CCCNC(=N)N)C(=O)N[C@@H](Cc1c[nH]cn1)C(=O)N[C@@H](Cc1ccc(O)cc1)C(=O)N[C@@H](Cc1ccc(O)cc1)C(=O)N[C@@H](CC(N)=O)C(=O)N[C@@H](Cc1c[nH]c2ccccc12)C(=O)N[C@@H](CC(C)C)C(=O)N[C@H](C(=O)N[C@@H](CCCNC(=N)N)C(=O)N[C@@H](CCC(N)=O)C(=O)N[C@@H](CCCNC(=N)N)C(=O)N[C@@H](Cc1ccc(O)cc1)C(N)=O)[C@@H](C)O` [Compound 1, N{alpha-4}-(3-methylbutanoyl)-N{epsilon-7}-(6-[(4S)-4-carboxy-4-(17-carboxyheptadecanamido)butanamido]hexanoyl)[4A,7K,9E,10A,13E,18Q,22I,23A,28Y,30W,31L]-hPYY(4-36)], in the series “Solubility determination”, the “Sol6” value was determined as 10.0 mg/mL and the “Sol7” value amounted to 7.6 mg/mL. Further, the Ki in series [1] was 2.05 nM.

The values are drawn from US12391737B2, “Soluble NPY2 receptor agonists” (Boehringer Ingelheim International GmbH, priority 2020, dated 2025).
